According to ChEMBL document CHEMBL4513161, “CO-ADD screening of MMV (CH) - Pandemic Response Box” (2021):
In brackets after ≈: the same amount, converted by molar mass.

Key:
Escherichia coli = assay: microbe, parasite or virus in culture; details: ATCC 25922, 18 h, ASSAY_TEST Inhibition of Bacterial Growth, detection method Absorption (OD600), MEDIA CAMHB, plate type 384well, NBS, CORNING #3640
Description: Antibacterial activity against Escherichia coli ATCC 25922 (CO-ADD:GN_001); MIC in CAMBH media using NBS plates, by OD(600)

HEK293 = assay: cells; assay type: functional, Homo sapiens, ATCC CRL1573; details: Homo sapiens, ATCC CRL1573, HEK293; ASSAY_TEST Inhibition of Cell Viability; detection method Resazurin; Fluorescence (ex560/em590); MEDIA DMEM with 10% FBS; plate type 384well; TC; CORNING #3712; time 18 hr; read-out: CC50
Candida albicans = assay: microbe, parasite or virus in culture; details: ATCC 90028, ASSAY_TEST Inhibition of Fungal Growth, detection method Absorption (OD530), plate type 384well, NBS, CORNING #3640
Description: Antifungal activity against Candida albicans ATCC 90028 (CO-ADD:FG_001); MIC in YNB media using NBS plates, by OD630

Pseudomonas aeruginosa [1] = assay: Antibacterial activity against Pseudomonas aeruginosa PAO397 [PAO1 d(mexAB-oprM) d(mexCD-oprJ) d(mexEF-oprN) d(mexJKL) d(mexXY) d(opmH)] (CO-ADD:GN_211); MIC in CAMBH media using NBS plates, by OD(600); assay type: functional; details: ASSAY_TEST Inhibition of Bacterial Growth, detection method Absorption (OD600), MEDIA CAMHB, plate type 384well, CORNING #3640, time 18 hr
Pseudomonas aeruginosa [2] = assay: microbe, parasite or virus in culture; details: ATCC 27853, 18 h, ASSAY_TEST Inhibition of Bacterial Growth, detection method Absorption (OD600), MEDIA CAMHB, plate type 384well, NBS, CORNING #3640
Description: Antibacterial activity against Pseudomonas aeruginosa ATCC 27853 (CO-ADD:GN_042); MIC in CAMBH media using NBS plates, by OD(600)

Staphylococcus aureus = assay: microbe, parasite or virus in culture; details: ATCC 43300, 18 h, ASSAY_TEST Inhibition of Bacterial Growth, detection method Absorption (OD600), MEDIA CAMHB, plate type 384well, NBS, CORNING #3640
Description: Antibacterial activity against Staphylococcus aureus MRSA ATCC 43300 (CO-ADD:GP_020); MIC in CAMBH media, using NBS plates, by OD(600)

Klebsiella pneumoniae = assay: microbe, parasite or virus in culture; details: ATCC 700603, 18 h, ASSAY_TEST Inhibition of Bacterial Growth, detection method Absorption (OD600), MEDIA CAMHB, plate type 384well, NBS, CORNING #3640
Description: Antibacterial activity against Klebsiella pneumoniae MDR ATCC 70063 (CO-ADD:GN_003); MIC in CAMBH media using NBS plates, by OD(600)

Acinetobacter baumannii = assay: microbe, parasite or virus in culture; details: ATCC 19606, 18 h, ASSAY_TEST Inhibition of Bacterial Growth, detection method Absorption (OD600), MEDIA CAMHB, plate type 384well, NBS, CORNING #3640
Description: Antibacterial activity against Acinetobacter baumannii ATCC 19606 (CO-ADD:GN_034); MIC in CAMBH media using NBS plates, by OD600

Description for Cryptococcus neoformans: Antifungal activity against Cryptococcus neoformans H99 ATCC 208821 (CO-ADD:FG_002); MIC in YNB media using NBS plates, by Resazurin OD(600-570)

SMILES	MIC (Escherichia coli)	CC50 (HEK293)	MIC (Candida albicans)	MIC (Pseudomonas aeruginosa [1])	MIC (Pseudomonas aeruginosa [2])	MIC (Staphylococcus aureus)	MIC (Klebsiella pneumoniae)	MIC (Cryptococcus neoformans)	MIC (Acinetobacter baumannii)
Cc1ccc(NC(=O)c2cc(Cl)ccc2O)cc1	> 20 µM	3.91 µM	> 20 µM	> 20 µM	> 20 µM	> 20 µM	> 20 µM	> 20 µM	> 20 µM
CN(C)CCCNC(=O)c1ccc(-c2cc(O)c3ncccc3c2)cc1	> 20 µM	16.6 µM	> 20 µM	> 20 µM	> 20 µM	> 20 µM	> 20 µM	> 20 µM	> 20 µM
O=C1NC(=O)C(Br)=C1Br	> 20 µM	3.28 µM	20 µM (≈ 5.1 µg/mL)	> 20 µM	> 20 µM	> 20 µM	> 20 µM	10 µM (≈ 2.55 µg/mL)	> 20 µM
CCCCc1ccc(-c2nc(C)c(C(=O)OC)s2)cc1	> 20 µM	> 20 µM	> 20 µM	> 20 µM	> 20 µM	> 20 µM	> 20 µM	> 20 µM	> 20 µM
Cc1c(F)cccc1NC(=O)Nc1ccc(Cl)c(S(=O)(=O)[C@H]2CCCNC2)c1O	> 20 µM	12 µM	> 20 µM	> 20 µM	> 20 µM	> 20 µM	> 20 µM	> 20 µM	> 20 µM
COc1cc(NC(=O)CN2C(=O)NC(c3ccccc3)(c3ccccc3)C2=O)cc(OC)c1	> 20 µM	> 20 µM	> 20 µM	> 20 µM	> 20 µM	> 20 µM	> 20 µM	> 20 µM	> 20 µM
CN(C)[C@@H]1C(=O)C(C(N)=O)=C(O)[C@@]2(O)C(=O)C3=C(O)c4c(O)c(NC(=O)CN5CCCC5)cc(F)c4C[C@H]3C[C@@H]12	0.313 µM (≈ 0.175 µg/mL)	> 20 µM	> 20 µM	0.625 µM (≈ 0.349 µg/mL)	0.625 µM (≈ 0.349 µg/mL)	0.312 µM (≈ 0.175 µg/mL)	10 µM (≈ 5.59 µg/mL)	> 20 µM	> 20 µM
COCCn1cnc2c(O)nc(Nc3ccccc3)nc21	> 20 µM	> 20 µM	> 20 µM	> 20 µM	> 20 µM	> 20 µM	> 20 µM	> 20 µM	> 20 µM
CC1(C)C[C@H]1C(=O)N/C(=C\CCCCSC[C@@H](N)C(=O)O)C(=O)O	> 20 µM	> 20 µM	> 20 µM	> 20 µM	> 20 µM	> 20 µM	> 20 µM	> 20 µM	> 20 µM
Cc1cc(O)c2c(c1)C(=O)c1c(I)c(O)c(I)c(O)c1C2=O	> 20 µM	> 20 µM	> 20 µM	> 20 µM	> 20 µM	20 µM (≈ 10.4 µg/mL)	> 20 µM	> 20 µM	> 20 µM
NC(=O)c1ccccc1NC(=O)c1ccc(C(=O)Nc2ccccc2C(N)=O)cc1	> 20 µM	> 20 µM	> 20 µM	> 20 µM	> 20 µM	> 20 µM	> 20 µM	> 20 µM	> 20 µM
O=C(Nc1[nH]c(=O)ncc1F)c1ccccc1	> 20 µM	> 20 µM	> 20 µM	> 20 µM	> 20 µM	> 20 µM	> 20 µM	> 20 µM	> 20 µM
O=C(NCc1ccc(F)cc1)c1c(O)c2ncccc2[nH]c1=O	> 20 µM	> 20 µM	> 20 µM	> 20 µM	> 20 µM	> 20 µM	> 20 µM	> 20 µM	> 20 µM
O=c1cc(NCCCN[C@@H]2CCOc3c(Br)cc(Br)cc32)[nH]c2ccsc12 [CRS-3123]	> 20 µM	> 20 µM	> 20 µM	20 µM (≈ 10.3 µg/mL)	> 20 µM	0.312 µM (≈ 0.16 µg/mL)	> 20 µM	> 20 µM	> 20 µM
O=C(/C(=C/c1ccc(Cl)cc1Cl)n1ccnc1)c1ccc(Cl)cc1	> 20 µM	5.19 µM	10 µM (≈ 3.78 µg/mL)	> 20 µM	> 20 µM	20 µM (≈ 7.55 µg/mL)	> 20 µM	20 µM (≈ 7.55 µg/mL)	> 20 µM
CCN1CCN(Cc2nc3ccc([N+](=O)[O-])cc3c(=O)n2-c2ccccc2F)CC1	> 20 µM	> 20 µM	> 20 µM	> 20 µM	> 20 µM	> 20 µM	> 20 µM	> 20 µM	> 20 µM
C=C[C@]1(C)C[C@@H](OC(=O)CS[C@@H]2C[C@H]3CC[C@@H](C2)N3C)[C@]2(C)[C@H](C)CC[C@]3(CCC(=O)[C@H]32)[C@@H](C)[C@@H]1O [RETAPAMULIN]	> 20 µM	> 20 µM	> 20 µM	2.5 µM (≈ 1.29 µg/mL)	> 20 µM	≤ 0.156 µM	> 20 µM	> 20 µM	> 20 µM
O=c1[nH]c(=O)n(Cc2cccc(Oc3ccccc3)c2)cc1Nc1ccccc1	> 20 µM	> 20 µM	> 20 µM	> 20 µM	> 20 µM	> 20 µM	> 20 µM	> 20 µM	> 20 µM
Nc1ccc(-c2nc3cc(C(F)(F)F)ccc3n2C23CC4CC(CC(C4)C2)C3)cc1	> 20 µM	> 20 µM	> 20 µM	> 20 µM	> 20 µM	> 20 µM	> 20 µM	> 20 µM	> 20 µM
NC1(C(=O)O)CCP(=O)(O)CC1 (stereo unspecified)	> 20 µM	> 20 µM	> 20 µM	> 20 µM	> 20 µM	> 20 µM	> 20 µM	> 20 µM	> 20 µM
c1cc(CN2CCCNCCNCCCNCC2)ccc1CN1CCCNCCNCCCNCC1 [PLERIXAFOR]	> 20 µM	> 20 µM	> 20 µM	> 20 µM	> 20 µM	> 20 µM	> 20 µM	> 20 µM	> 20 µM
CSC[C@H]1CN(Cc2c[nH]c3c(N)ncnc23)C[C@@H]1O	> 20 µM	> 20 µM	> 20 µM	> 20 µM	> 20 µM	> 20 µM	> 20 µM	> 20 µM	> 20 µM
Oc1cccc(C(Nc2nccs2)c2ccc3cccnc3c2O)c1 (stereo unspecified)	> 20 µM	6.67 µM	> 20 µM	> 20 µM	> 20 µM	> 20 µM	> 20 µM	> 20 µM	> 20 µM
O=c1oc2ccc(Br)cc2cc1CSc1ncc[nH]1	> 20 µM	> 20 µM	> 20 µM	> 20 µM	> 20 µM	> 20 µM	> 20 µM	> 20 µM	> 20 µM
Cc1cc(CCCOc2c(C)cc(-c3noc(C(F)(F)F)n3)cc2C)on1 [PLECONARIL]	> 20 µM	> 20 µM	> 20 µM	> 20 µM	> 20 µM	> 20 µM	> 20 µM	> 20 µM	> 20 µM
O=S(=O)(NCB(O)O)c1ccc(-c2nnn[nH]2)cc1C(F)(F)F	> 20 µM	> 20 µM	> 20 µM	> 20 µM	> 20 µM	> 20 µM	> 20 µM	> 20 µM	> 20 µM
NC(=O)c1ccc(I)c([N+](=O)[O-])c1 [INIPARIB]	> 20 µM	> 20 µM	> 20 µM	> 20 µM	> 20 µM	> 20 µM	> 20 µM	> 20 µM	> 20 µM
CCCCCc1ccc(C(=O)NCCn2cc(CCCCCc3c[nH]c(N)n3)nn2)cc1	> 20 µM	> 20 µM	> 20 µM	> 20 µM	> 20 µM	> 20 µM	> 20 µM	> 20 µM	> 20 µM
Cc1c(N)cccc1Cn1ccc(OCCc2cccs2)cc1=O [CG-400549]	> 20 µM	> 20 µM	> 20 µM	> 20 µM	> 20 µM	0.625 µM (≈ 0.213 µg/mL)	> 20 µM	> 20 µM	> 20 µM
